Key:
[1] = tested on: PBMCs isolated from HIV-infected subjects; experiment: culture of PBMCs from HIV-infected subjects without anti-retroviral drugs: T cell subsets; type: cell-based, human; details: no anti-retroviral drugs
From the text: (§1) The percent of CD8+ cells in the culture increased with lower concentrations of CD3,8 BSMAB. […] Absent anti-retroviral drugs, this massive activation of HIV will eventually cause a sharp decrease in the CD4+ T cell population.

HIV = HIV replication (p24 in culture supernatant) in PBMC cultures without anti-retroviral drugs; type: cell-based, human; details: no anti-retroviral drugs
From the text: as §1

phytohemagglutinin [PHA]
T cell subsets activated [1]: both CD4+ and CD8+ T cells were activated | selective outgrowth of CD4+ T cells [1]: No selective outgrowth of the CD4+ T cells occurred | HIV replication (p24 in supernatant) (HIV): induced increased HIV replication
